Data from the METLIN SMRT retention time set (Domingo-Almenara et al. 2019).

Assay: gradient 5% acetonitrile 3 min, to 50% in 2 min, to 85% in 15 min, held 3 min, 100 µL/min
Details: column: Zorbax Extend-C18 2.1 x 50 mm; eluents: water / acetonitrile, 0.1% formic acid
Method in brief: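 Values are retention times taken from adduct peaks that software picked and an analyst inspected. The pure standards were run as mixtures of ~100 molecules on HPLC linked to a quadrupole time-of-flight mass spectrometer, in positive and negative ionization mode. A Zorbax Extend-C18 column (2.1 × 50 mm, 1.8 μm) was used at 100 μL/min with water and acetonitrile, each including 0.1% formic acid.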

| RP-LC retention time [s] | SMILES |
| --- | --- |
| 842 | COc1ccc(NC(=O)Cn2c(=O)n(-c3ccccc3)c(=O)c3c2cc(C)n3C)cc1Cl |
| 714 | COc1ccc2[nH]cc(CCNC(=O)Cn3nc4c(cc3=O)CCCC4)c2c1 |
| 953 | Cc1ccc(CN2CCCn3nc(C(=O)NCCc4c[nH]c5ccc(Cl)cc45)cc3C2=O)cc1 |
| 582 | O=C(c1c(F)cccc1F)N1CCN=C1SCc1cccnc1 |
| 655 | CN1CCCn2cc(S(=O)(=O)Nc3ccc4c(c3)OCCO4)cc2C1=O |
| 704 | CN(CCNC(=O)C1CCCN(S(=O)(=O)c2ccc3c(ccn3C)c2)C1)Cc1ccccc1 (centres undefined) |
| 1150 | CCOC(=O)CC1=CC(SCC(=O)N2CCC(C)CC2)=Nc2ccccc2N1 |
| 823 | CCOc1ccccc1NC(=O)c1ccccc1[N+](=O)[O-] |
| 940 | COC(=O)c1cc(OC)c(OC)cc1NC(=O)c1c(C)coc1C |
| 1030 | O=C(NCc1ccccn1)C1=C2CCCN2c2ccc(F)cc2S1(=O)=O |
| 974 | COc1ccc(-c2noc(CN3N=NC4C(=O)N(c5ccc(C)c(Cl)c5)C(=O)C43)n2)c(OC)c1 (centres undefined) |
| 854 | Cc1ccc(-n2cc(C(=O)NCc3ccco3)nn2)cc1C |
| 733 | O=C(c1cccs1)N1CCC(c2nnc(-c3ccc(F)cc3)o2)CC1 |
| 755 | CCCCNC(=O)c1c(OCC(C)C)cc(=O)n2c1CCCCC2 |
| 562 | CCN1CCN(CCNC(=O)C2CCCN(c3nc4cccnc4s3)C2)CC1 (centres undefined) |
| 766 | CN(Cc1ccccc1)C(=O)c1cccc(NC(=O)[C@H]2[C@@H]3C[C@@H]4[C@H]2C(=O)O[C@@H]4C3)c1 |
| 748 | O=C(Nc1ccc(F)cc1Cl)C1CCc2sc(C(=O)N3CCOCC3)cc2C1 (centres undefined) |
| 1170 | COc1ccc2c(c1)-c1nc(NC(=O)c3ccc(C)cc3)sc1CC2 |
| 803 | Cc1cc(O)c(C(C[N+](=O)[O-])c2ccc(Cl)cc2Cl)c(=O)o1 (centres undefined) |

| RP-LC retention time [s] | SMILES |
| --- | --- |
| 616 | C(#Cc1ccccc1)CN1CCN(CC#Cc2ccccc2)CC1 |
| 1010 | CC(C)c1ccc(S(=O)(=O)N(C)CC2CCOCC2)cc1 |
| 813 | CCCNC(=O)c1nc(Nc2ccc(CC)cc2)c2ccccc2n1 |
| 987 | CCOc1ccc(-c2nn3c(CSc4ccccc4)nnc3s2)cc1OC |
| 876 | CCCN(CC1CCOC1)C(=O)Nc1cccc(Br)c1 (centres undefined) |
| 701 | COc1ccc(NC(=O)C2CCCN(c3nnc4ccc(Cl)cn34)C2)cc1OC (centres undefined) |
| 676 | COc1cccc(S(=O)(=O)N2C[C@@H]3C[C@H]2C[C@@H]3NC(=O)c2cccnc2)c1 |
| 636 | COc1cccc(NC(=O)Nc2ccc(CC(N)=O)cc2)c1OC |
| 1170 | CC(C)c1noc(C2CCCCN2Cc2cc(F)cc(F)c2)n1 (centres undefined) |
| 904 | CCOC(=O)C1CCN(c2cc3c(cc2NC(=O)c2ccco2)n(C)c(=O)n3C)CC1 |
| 762 | O=C(NCc1ccccc1F)C1CCCN(c2nn3c(=O)c4c(nc3s2)CCCC4)C1 (centres undefined) |
| 573 | O=C(CSCc1ccccc1)N1CC(c2nc3ccccc3[nH]2)C1 |
| 1210 | CC(C)Oc1ccc(-c2noc(Cn3ncn4nc(-c5ccc(F)cc5)cc4c3=O)n2)cc1 |
| 628 | CC(NC(=O)C1CCN(c2cncnc2N2CCOCC2)CC1)c1ccc(F)cc1 (centres undefined) |
| 619 | Cc1ccc(CS(=O)Cc2ccc(C(=O)N3CCN(c4ccccn4)CC3)o2)cc1 (centres undefined) |
| 1080 | COc1cccc(Cn2c(=O)c3sccc3n(Cc3nc(-c4cccc(OC)c4)no3)c2=O)c1 |
| 752 | Cc1sc(-c2cc(C(F)(F)F)[nH]n2)cc1S(=O)(=O)N1CCN(c2ccccn2)CC1 |
| 567 | CC(=O)NC(C)C(=O)N1CCC(CCOc2cccnc2)CC1 (centres undefined) |

Second part, the molecule before the results:

| SMILES | RP-LC retention time [s] |
| --- | --- |
| Cc1nc(-c2csc(S(=O)(=O)N3CCCC(C(=O)Nc4ccc5c(c4)OCCO5)C3)c2)no1 (centres undefined) | 880 |
| CCn1ccc2oc(C)c(C(=O)NCc3ccccc3Br)c2c1=O | 1020 |
| CC(C)(C)c1ccc(-c2noc(Cn3c(=O)n(-c4ccccc4F)c(=O)c4sccc43)n2)cc1 | 1220 |
| O=C(CN1C(=O)c2ccccc2C1=O)NCC1CCS(=O)(=O)C1 (centres undefined) | 586 |
| CCCNC(=O)CCNc1c(-c2ccccc2C)nc2cnccn12 | 607 |
| O=C(c1cc(C2CC2)[nH]n1)N1CCCCC1 | 661 |
| Cc1nc(-c2cc(S(=O)(=O)NCc3ccc(F)cc3F)c(C)s2)cs1 | 956 |
| CCNC(=O)N1CCc2c(c(-c3nc(-c4ccccc4)no3)nn2C)C1 | 787 |
| CCOC(=O)c1sc(NC(=O)c2cc3ccccc3o2)nc1C | 974 |
| CC1(C)CC(=O)c2cn(-c3ccc(F)cc3)c(=O)c(C(=O)N3CCC(N4CCCCC4)CC3)c2C1 | 634 |
| CN(C)c1ccc(C(=O)N2CCN(c3cc(-c4cccs4)[nH]n3)CC2)cc1 | 714 |
| Cc1ccc(N2CCN(c3nccn4nc(-c5ccc(Cl)cc5)cc34)CC2)cc1 | 1400 |
| CCC1Oc2ccc(S(=O)(=O)N3CCC(C(=O)Nc4ccc(F)cc4)CC3)cc2NC1=O (centres undefined) | 866 |
| COc1ccc(-c2ncc3c(n2)CCN(C(=O)Cc2ccccc2Cl)C3)cc1 | 989 |
| Cc1ccc(S(=O)(=O)N(C)CC2CCOCC2)cc1C | 886 |
| COc1cc(-c2nnc(-c3ccc(C)c(S(=O)(=O)N4CCC(C)CC4)c3)o2)cc(OC)c1OC | 1170 |
| CC(C)c1noc(COC2CCN(C(=O)Cn3ccnc3)CC2)n1 | 592 |
| COc1ccc2[nH]cc(CCNCc3ccc(Br)cc3)c2c1 | 764 |
| CS(=O)(=O)CCC(C(=O)N1CCN(c2ccccn2)CC1)N1Cc2ccccc2C1=O (centres undefined) | 917 |
| Cc1ccc(N2CCN(C(=O)c3sc4ncccc4c3-n3cccc3)CC2)c(C)c1 | 1260 |
| O=C(c1ccsc1)N1CCCC(c2nc(-c3ccccc3)n[nH]2)C1 (centres undefined) | 716 |
| CCc1nnc(-c2ccc3ccn(CC(=O)NCc4ccccc4OC)c3c2)o1 | 851 |
| CN1CCN(C(=O)c2cc3n(n2)CC(C)(C(=O)NCc2ccccc2)N(C)C3=O)CC1 (centres undefined) | 572 |
| COc1cccc(-c2noc(Cc3nnc(-c4cccc(Br)c4)o3)n2)c1OC | 1010 |
| COC(=O)c1c(C)[nH]c(C(=O)N2CCC(CC(=O)NCCc3c[nH]c4ccc(Cl)cc34)CC2)c1C | 785 |
| COc1ccc(Cl)cc1C(=O)Nc1cnc(N2CCCCC2)nc1 | 1070 |

| SMILES | RP-LC retention time [s] |
| --- | --- |
| COc1ccc(C2C(C(=O)N3CCOCC3)c3cc(OC)c(OC)cc3C(=O)N2C)cc1OC (centres undefined) | 637 |
| CCCCOc1ccc(NC(=O)c2oc3ccc(F)cc3c2C)c2cccnc12 | 850 |
| CCOc1ccc(C(=O)NC(C)C(=O)Nc2nc3ccccc3[nH]2)cc1 (centres undefined) | 640 |
| CCn1c(SCC(=O)Nc2nc(-c3ccccc3)cs2)nnc1-c1nonc1NC(C)=O | 897 |
| Cc1ccc(-c2nc(-c3ccc4c(c3)oc(=O)n4C(C)C)no2)cc1C | 1130 |
| O=C(CCc1nc(-c2ccc(N3CCCC3)cc2)no1)N1CCC2(CC1)OCCO2 | 945 |
| CN(C)C[C@@H]1CN(c2ncccn2)C[C@H]1NC(=O)NCCc1ccccc1 | 600 |
| O=C(c1cccc(Br)c1)N1CCN(CCn2cccn2)CC1 | 554 |
| CCCC(NC(=O)c1sccc1C)C(=O)Nc1nc2ccccc2[nH]1 (centres undefined) | 686 |
| CCc1cc(=O)n(CC(=O)NCc2ccc(F)cc2)c(N2CCOCC2)n1 | 717 |
| CCOC(=O)c1c(C)c(C(=O)Nc2cccc(C)c2C)c(C)n1C | 882 |
| Cc1nc(-c2cn(C(C)C)c3ncccc23)sc1C(=O)NCCN1CCOCC1 | 630 |
| Cc1nn(-c2ccc(C(=O)N3CCCCC3)cc2)c2c1C(=O)CCC2 | 721 |
| CC1=C(c2ccc(C)c(C)c2)S(=O)(=O)N=C1N1CCC(C(=O)NCCN2CCOCC2)CC1 | 648 |
| Cc1nn2c(S(=O)(=O)N3CCC(C)CC3)c(C)nc2s1 | 838 |
| CCc1csc(-c2ccc(N3CCN(C(=O)c4ccc(Cl)nc4)CC3)nc2)n1 | 832 |
| CSc1cccc(NC(=O)c2c[nH]c3ncccc23)c1 | 752 |
| O=C(c1ccc2c(c1)OCO2)N1CCC2(CC1)NC(=O)N(Cc1ccccc1)C2=O | 760 |
| COc1ccc(C(C)NC(=O)Cn2nc3cc(-c4ccccc4)nc(C)n3c2=O)cc1 (centres undefined) | 908 |
| CCc1nc2cc3c(cc2n1CC(=O)N1CCCCC1)OCCO3 | 600 |
| CCCNC(=O)CCC1CCN(c2cc(NCCC)ncn2)CC1 | 606 |
| O=C(Nc1ccccc1F)c1c(O)c2cccnc2n(-c2ccc(F)cc2)c1=O | 1220 |
| [O-][n+]1ccc(CC(O)(C(F)(F)F)C(F)(F)F)cc1 | 674 |
| CC1Cc2cc(-c3cc(CC(=O)Nc4nc5ccccc5[nH]4)no3)ccc2O1 (centres undefined) | 657 |
| O=C(Nc1ccc2c(c1)OCCO2)N1CCC(OCCOCc2ccccc2)CC1 | 853 |
| CCc1cc(-c2csc(S(=O)(=O)Nc3ccc(C)c(C)c3)c2)on1 | 1050 |
